Test results reported in patent US20080115236A1, “CBG gene as a genetic marker of hypercortisolism and associated pathologies” (Institut National de la Recherche Agronomique (INRA), a …, priority 2001, published 2008).
Where two headings read alike, the source gives them in different places.

Biological target: T1, CBG (corticosteroid-binding globulin, transcortin) (Sus scrofa, UniProt Q9GK37)
T1 construct: quantity of cortisol specifically fixed to the glycoproteins adsorbed on the gel; from tissue; host or cells: pig blood plasma (Large White and Meishan, n = 12 each)
T1 sequence (Q9GK37 23-406): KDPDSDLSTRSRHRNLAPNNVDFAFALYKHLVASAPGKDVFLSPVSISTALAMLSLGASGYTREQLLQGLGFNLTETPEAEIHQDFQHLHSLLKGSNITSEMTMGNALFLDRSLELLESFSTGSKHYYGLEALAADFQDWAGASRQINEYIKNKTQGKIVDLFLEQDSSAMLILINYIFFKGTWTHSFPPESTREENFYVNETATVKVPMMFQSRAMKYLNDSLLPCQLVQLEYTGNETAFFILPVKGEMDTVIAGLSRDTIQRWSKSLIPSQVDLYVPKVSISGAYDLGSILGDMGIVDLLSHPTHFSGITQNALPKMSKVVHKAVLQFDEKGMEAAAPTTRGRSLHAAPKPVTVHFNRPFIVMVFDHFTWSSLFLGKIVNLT
Assay: solid phase fixation (radiobinding) test of cortisol binding to plasma CBG, Concavalin A-Sepharose, Scatchard analysis
Parameters: species or system pig
Conditions: n = 12, plasma CBG, 4° C., read-out: Kd (affinity of CBG for cortisol)
Experimental: The binding capacity of CBG and its affinity for cortisol were measured at 4° C. by a solid phase fixation test using a Concavalin A-Sepharose column (Pugeat et al., 1984). The association equilibrium constant (Ka) and the capacity of CBG for cortisol were calculated by a Scatchard analysis using “bound” as the quantity of cortisol specifically fixed to the glycoproteins adsorbed on the gel and “free” as the concentration of cortisol in the aqueous phase.
At the protein level, the capacity of binding to cortisol and the affinity constant of CBG were compared between the LW and Meishan pigs by radiobinding studies. No difference in affinity was found between the two breeds of pigs.

`C[C@]12CCC(=O)C=C1CC[C@@H]1[C@@H]2[C@@H](O)C[C@@]2(C)[C@H]1CC[C@]2(O)C(=O)CO` [cortisol] was tested, and the Kd (Large White pigs) was 0.38 ± 0.05 nM and the Kd (Meishan pigs) was 0.46 ± 0.05 nM.
